Data from patent EP0646315B1, “Novel compositions containing an auxin transport inhibitor and another herbicide” (Novartis AG, priority 1993, dated 1995).

Columns and labels:
pigweed [1] = test: Field trial, post-emergent tank mix in field corn; format: in vivo, Amaranthus sp.; settings: post-emergent 35 days after seeding, weeds 41 to 89 cm, foliar broadcast tank mix, (z) 0.275 kg/ha, (a) 0.011 kg/ha, Aquagene 0.9 l/ha where named
Method: (§1) A field trial was conducted against velvetleaf and pigweed in field corn. Application was post-emergent 35 days after seeding with weeds at a height of 41 to 89 cm. Application was of tank mixed formulation by foliar applied broadcast treatment. Compound (a) above was tank mixed as is. Compound (z) above was tank mixed in the form of a 0.5 kg/l s.c. commercially available under the trademark […]®. Aquagene is a commercially available surfactant, (Universal Coop Incorporated, Minneapolis, MN).

velvetleaf [2] = test: Field trial, post-emergent tank mix in field corn; format: in vivo, Abutilon theophrasti; settings: post-emergent 35 days after seeding, weeds 41 to 89 cm, foliar broadcast tank mix, (z) 0.275 kg/ha, (a) 0.011 kg/ha, Aquagene 0.9 l/ha where named
Method: as §1

pigweed [3] = test: Greenhouse test, post-emergence; format: in vivo, Amaranthus sp.; settings: treatment 10 days post-emergence, evaluation 18 days after treatment, (e) 0.01 kg/ha, (z) 0.02 kg/ha, 3 repetitions
Method: (§2) A greenhouse test was conducted against velvetleaf, pigweed, morningglory and cocklebur. Treatment was at 10 days post-emergence and evaluation at 18 days after treatment. Compound (e) was formulated as technical a.i. in a mixture of equal parts acetone and water with 1/2% surfactant. Compound (z) was used in the commercially available form […]® herbicide (=480g/L a.i. equivalent) in water with 1/2% surfactant. The tank mixes were applied in a linear spray chamber with 3 repetitions per concentration.

morningglory = test: Greenhouse test, post-emergence; format: in vivo, Ipomoea sp.; settings: treatment 10 days post-emergence, evaluation 18 days after treatment, (e) 0.01 kg/ha, (z) 0.02 kg/ha, 3 repetitions
Method: as §2

velvetleaf [4] = test: Greenhouse test, post-emergence; format: in vivo, Abutilon theophrasti; settings: treatment 10 days post-emergence, evaluation 18 days after treatment, (e) 0.01 kg/ha, (z) 0.02 kg/ha, 3 repetitions
Method: as §2

cocklebur = test: Greenhouse test, post-emergence; format: in vivo, Xanthium strumarium; settings: treatment 10 days post-emergence, evaluation 18 days after treatment, (e) 0.01 kg/ha, (z) 0.02 kg/ha, 3 repetitions
Method: as §2

2-acetylnicotinic acid 4-(3,5-difluorophenyl)semicarbazone 2-(2-hydroxyethoxy)ethyl-ammonium salt [Compound (a)]
% of control Pigweed (pigweed [1]): 18%
% of control Velvetleaf (velvetleaf [2]): 13%

COc1c(Cl)ccc(Cl)c1C(=O)O [Compound (z), dicamba]
% control Pigweed (pigweed [3]): 35%
% control Morningglory (morningglory): 35%
activity at 275 g/ha (pigweed [1]; Amaranthus retroflexus, 840 h, read-out: % of control Pigweed): 30%
% control Velvetleaf (velvetleaf [4]): 35%
% control Cocklebur (cocklebur): 75%
activity at 275 g/ha (velvetleaf [2]; Abutilon theophrasti, 840 h, read-out: % of control Velvetleaf): 18%
